Reference: paper PMC9856672, “SGC-CAMKK2-1: A Chemical Probe for CAMKK2” (Cells, 2023)

Key:
[1] = target: T1, CAMK1D (Homo sapiens, UniProt Q8IU85); assay: KINOMEscan at 1 μM, CAMK1D; assay type: binding; details: 1000 nM, read-out: Percent Control
T1 construct: purchased Eurofins DiscoverX KINOMEscan
Excerpt: (§1) Supplement cells-12-00287-s001.zip/File S2. KinomeScan data for the CAMKK2 probe and negative control.xlsx, sheet "SGC-CAMKK2-1N" | column: Percent Control

[2] = target: T2, BMPR2 (Homo sapiens, UniProt Q13873); assay: KINOMEscan at 1 μM, BMPR2; assay type: binding; details: 1000 nM, read-out: Percent Control
T2 construct: purchased Eurofins DiscoverX KINOMEscan
Excerpt: as §1

[3] = target: T3, ULK2 (Homo sapiens, UniProt Q8IYT8); assay: KINOMEscan at 1 μM, ULK2; assay type: binding; details: 1000 nM, read-out: Percent Control
T3 construct: purchased Eurofins DiscoverX KINOMEscan
Excerpt: as §1

[4] = target: T4, FLT1 (Homo sapiens, UniProt P17948); assay: KINOMEscan at 1 μM, FLT1; assay type: binding; details: 1000 nM, read-out: Percent Control
T4 construct: purchased Eurofins DiscoverX KINOMEscan
Excerpt: as §1

[5] = target: T5, SGK (Homo sapiens, UniProt O00141); assay: KINOMEscan at 1 μM, SGK; assay type: binding; details: 1000 nM, read-out: Percent Control
T5 construct: purchased Eurofins DiscoverX KINOMEscan
Excerpt: as §1

[6] = target: T6, SRPK1 (Homo sapiens, UniProt Q96SB4); assay: KINOMEscan at 1 μM, SRPK1; assay type: binding; details: 1000 nM, read-out: Percent Control
T6 construct: purchased Eurofins DiscoverX KINOMEscan
Excerpt: as §1

[7] = target: T7, LIMK1 (Homo sapiens, UniProt P53667); assay: KINOMEscan at 1 μM, LIMK1; assay type: binding; details: 1000 nM, read-out: Percent Control
T7 construct: purchased Eurofins DiscoverX KINOMEscan
Excerpt: as §1

[8] = target: T8, PRKCH (Homo sapiens, UniProt P24723); assay: KINOMEscan at 1 μM, PRKCH; assay type: binding; details: 1000 nM, read-out: Percent Control
T8 construct: purchased Eurofins DiscoverX KINOMEscan
Excerpt: as §1

[9] = target: T9, AKT1 (Homo sapiens, UniProt P31749); assay: KINOMEscan at 1 μM, AKT1; assay type: binding; details: 1000 nM, read-out: Percent Control
T9 construct: purchased Eurofins DiscoverX KINOMEscan
Excerpt: as §1

[10] = target: T10, PRKCE (Homo sapiens, UniProt Q02156); assay: KINOMEscan binding assay at 1 μM, PRKCE; details: Compound Concentration 1000 nM; read-out: Percent Control
T10 construct: purchased Eurofins DiscoverX KINOMEscan
Excerpt: as §1

[11] = target: T11, TYRO3 (Homo sapiens, UniProt Q06418); assay: KINOMEscan binding assay at 1 μM, TYRO3; details: Compound Concentration 1000 nM; read-out: Percent Control
T11 construct: purchased Eurofins DiscoverX KINOMEscan
Excerpt: as §1

[12] = target: T12, LKB1 (Homo sapiens, UniProt Q15831); assay: KINOMEscan 1 μM, LKB1; assay type: binding; details: 1000 nM; Entrez STK11; read-out: Percent Control
T12 construct: purchased Eurofins DiscoverX KINOMEscan
Excerpt: (§2) Supplement cells-12-00287-s001.zip/File S2. KinomeScan data for the CAMKK2 probe and negative control.xlsx, sheet "SGC-CAMKK2-1" | column: Percent Control

[13] = target: T13, PRKX (Homo sapiens, UniProt P51817); assay: KINOMEscan 1 μM, PRKX; assay type: binding; details: 1000 nM; Entrez PRKX; read-out: Percent Control
T13 construct: purchased Eurofins DiscoverX KINOMEscan
Excerpt: as §2

[14] = target: T14, ACVR1 (Homo sapiens, UniProt Q04771); assay: KINOMEscan 1 μM, ACVR1; assay type: binding; details: 1000 nM; Entrez ACVR1; read-out: Percent Control
T14 construct: purchased Eurofins DiscoverX KINOMEscan
Excerpt: as §2

[15] = target: T15, SYK (Homo sapiens, UniProt P43405); assay: KINOMEscan 1 μM, SYK; assay type: binding; details: 1000 nM; Entrez SYK; read-out: Percent Control
T15 construct: purchased Eurofins DiscoverX KINOMEscan
Excerpt: as §2

[16] = target: T16, IRAK3 (Homo sapiens, UniProt Q9Y616); assay: KINOMEscan 1 μM, IRAK3; assay type: binding; details: 1000 nM; Entrez IRAK3; read-out: Percent Control
T16 construct: purchased Eurofins DiscoverX KINOMEscan
Excerpt: as §2

[17] = target: T17, CDC2L1 (Homo sapiens, UniProt P21127); assay: KINOMEscan 1 μM, CDC2L1; assay type: binding; details: 1000 nM; Entrez CDK11B; read-out: Percent Control
T17 construct: purchased Eurofins DiscoverX KINOMEscan
Excerpt: as §2

[18] = target: T18, CAMK2A (Homo sapiens, UniProt Q9UQM7); assay: KINOMEscan 1 μM, CAMK2A; assay type: binding; details: 1000 nM; Entrez CAMK2A; read-out: Percent Control
T18 construct: purchased Eurofins DiscoverX KINOMEscan
Excerpt: as §2

[19] = target: T19, TNK2 (Homo sapiens, UniProt Q07912); assay: KINOMEscan 1 μM, TNK2; assay type: binding; details: 1000 nM; Entrez TNK2; read-out: Percent Control
T19 construct: purchased Eurofins DiscoverX KINOMEscan
Excerpt: as §2

[20] = target: T20, ABL1(Q252H)-nonphosphorylated (Homo sapiens, UniProt P00519, Q252H); assay: KINOMEscan 1 μM, ABL1(Q252H)-nonphosphorylated; assay type: binding; details: 1000 nM; Entrez ABL1; read-out: Percent Control
T20 construct: purchased Eurofins DiscoverX KINOMEscan
Excerpt: as §2

[21] = target: T21, BIKE (Homo sapiens, UniProt Q9NSY1); assay: KINOMEscan 1 μM, BIKE; assay type: binding; details: 1000 nM; Entrez BMP2K; read-out: Percent Control
T21 construct: purchased Eurofins DiscoverX KINOMEscan
Excerpt: as §2

[22] = target: T2, BMPR2; assay: KINOMEscan 1 μM, BMPR2; assay type: binding; details: 1000 nM; Entrez BMPR2; read-out: Percent Control
Excerpt: as §2

[23] = target: T22, CLK3 (Homo sapiens, UniProt P49761); assay: KINOMEscan 1 μM, CLK3; assay type: binding; details: 1000 nM; Entrez CLK3; read-out: Percent Control
T22 construct: purchased Eurofins DiscoverX KINOMEscan
Excerpt: as §2

[24] = target: T23, DAPK3 (Homo sapiens, UniProt O43293); assay: KINOMEscan 1 μM, DAPK3; assay type: binding; details: 1000 nM; Entrez DAPK3; read-out: Percent Control
T23 construct: purchased Eurofins DiscoverX KINOMEscan
Excerpt: as §2

[25] = target: T24, GRK1 (Homo sapiens, UniProt Q15835); assay: KINOMEscan 1 μM, GRK1; assay type: binding; details: 1000 nM; Entrez GRK1; read-out: Percent Control
T24 construct: purchased Eurofins DiscoverX KINOMEscan
Excerpt: as §2

[26] = target: T25, IRAK4 (Homo sapiens, UniProt Q9NWZ3); assay: KINOMEscan 1 μM, IRAK4; assay type: binding; details: 1000 nM; Entrez IRAK4; read-out: Percent Control
T25 construct: purchased Eurofins DiscoverX KINOMEscan
Excerpt: as §2

[27] = target: T26, JAK3(JH1domain-catalytic) (Homo sapiens, UniProt P52333); assay: KINOMEscan 1 μM, JAK3(JH1domain-catalytic); assay type: binding; details: 1000 nM; Entrez JAK3; read-out: Percent Control
T26 construct: JAK3(JH1domain-catalytic); purchased Eurofins DiscoverX KINOMEscan
Excerpt: as §2

[28] = target: T27, JNK3 (Homo sapiens, UniProt P53779); assay: KINOMEscan 1 μM, JNK3; assay type: binding; details: 1000 nM; Entrez MAPK10; read-out: Percent Control
T27 construct: purchased Eurofins DiscoverX KINOMEscan
Excerpt: as §2

[29] = target: T28, LZK (Homo sapiens, UniProt O43283); assay: KINOMEscan 1 μM, LZK; assay type: binding; details: 1000 nM; Entrez MAP3K13; read-out: Percent Control
T28 construct: purchased Eurofins DiscoverX KINOMEscan
Excerpt: as §2

[30] = target: T29, PAK7 (Homo sapiens, UniProt Q9P286); assay: DiscoverX KINOMEscan binding assay at 1 μM, PAK7; details: Compound Concentration 1000 nM, read-out: Percent Control
T29 construct: purchased Eurofins DiscoverX KINOMEscan
Excerpt: as §2

[31] = target: T30, PIK3CA(C420R) (Homo sapiens, UniProt P42336, C420R); assay: DiscoverX KINOMEscan binding assay at 1 μM, PIK3CA(C420R); details: Compound Concentration 1000 nM, read-out: Percent Control
T30 construct: purchased Eurofins DiscoverX KINOMEscan
Excerpt: as §2

[32] = target: T31, PKN2 (Homo sapiens, UniProt Q16513); assay: DiscoverX KINOMEscan binding assay at 1 μM, PKN2; details: Compound Concentration 1000 nM, read-out: Percent Control
T31 construct: purchased Eurofins DiscoverX KINOMEscan
Excerpt: as §2

[33] = target: T32, TRPM6 (Homo sapiens, UniProt Q9BX84); assay: DiscoverX KINOMEscan binding assay at 1 μM, TRPM6; details: Compound Concentration 1000 nM, read-out: Percent Control
T32 construct: purchased Eurofins DiscoverX KINOMEscan
Excerpt: as §2

T2 sequence (Q13873 27-1038): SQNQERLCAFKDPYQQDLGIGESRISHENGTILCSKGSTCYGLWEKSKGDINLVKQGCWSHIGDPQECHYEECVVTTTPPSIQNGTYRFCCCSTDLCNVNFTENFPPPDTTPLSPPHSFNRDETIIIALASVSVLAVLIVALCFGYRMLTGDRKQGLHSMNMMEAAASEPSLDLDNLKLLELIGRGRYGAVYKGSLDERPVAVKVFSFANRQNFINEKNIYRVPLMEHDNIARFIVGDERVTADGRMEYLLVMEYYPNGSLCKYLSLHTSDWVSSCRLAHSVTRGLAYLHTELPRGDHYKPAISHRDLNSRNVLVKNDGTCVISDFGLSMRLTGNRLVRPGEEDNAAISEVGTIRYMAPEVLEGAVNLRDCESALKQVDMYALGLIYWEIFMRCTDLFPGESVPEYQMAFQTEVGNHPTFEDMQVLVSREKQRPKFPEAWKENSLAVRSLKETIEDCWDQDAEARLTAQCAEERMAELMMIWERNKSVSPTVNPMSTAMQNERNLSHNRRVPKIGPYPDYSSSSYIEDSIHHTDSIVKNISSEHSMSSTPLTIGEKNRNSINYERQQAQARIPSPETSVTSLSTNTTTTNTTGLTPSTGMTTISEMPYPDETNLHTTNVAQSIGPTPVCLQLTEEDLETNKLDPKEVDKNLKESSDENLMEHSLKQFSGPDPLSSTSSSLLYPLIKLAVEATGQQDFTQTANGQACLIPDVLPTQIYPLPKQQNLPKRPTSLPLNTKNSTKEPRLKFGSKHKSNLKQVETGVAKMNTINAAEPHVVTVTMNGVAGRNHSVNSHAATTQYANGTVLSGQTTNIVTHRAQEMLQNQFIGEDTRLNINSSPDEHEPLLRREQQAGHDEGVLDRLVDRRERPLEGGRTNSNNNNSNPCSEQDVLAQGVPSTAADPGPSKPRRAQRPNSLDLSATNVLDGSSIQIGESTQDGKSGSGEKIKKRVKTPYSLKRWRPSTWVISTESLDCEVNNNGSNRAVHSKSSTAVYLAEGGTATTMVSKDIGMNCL
T3 sequence (Q8IYT8 whole entry): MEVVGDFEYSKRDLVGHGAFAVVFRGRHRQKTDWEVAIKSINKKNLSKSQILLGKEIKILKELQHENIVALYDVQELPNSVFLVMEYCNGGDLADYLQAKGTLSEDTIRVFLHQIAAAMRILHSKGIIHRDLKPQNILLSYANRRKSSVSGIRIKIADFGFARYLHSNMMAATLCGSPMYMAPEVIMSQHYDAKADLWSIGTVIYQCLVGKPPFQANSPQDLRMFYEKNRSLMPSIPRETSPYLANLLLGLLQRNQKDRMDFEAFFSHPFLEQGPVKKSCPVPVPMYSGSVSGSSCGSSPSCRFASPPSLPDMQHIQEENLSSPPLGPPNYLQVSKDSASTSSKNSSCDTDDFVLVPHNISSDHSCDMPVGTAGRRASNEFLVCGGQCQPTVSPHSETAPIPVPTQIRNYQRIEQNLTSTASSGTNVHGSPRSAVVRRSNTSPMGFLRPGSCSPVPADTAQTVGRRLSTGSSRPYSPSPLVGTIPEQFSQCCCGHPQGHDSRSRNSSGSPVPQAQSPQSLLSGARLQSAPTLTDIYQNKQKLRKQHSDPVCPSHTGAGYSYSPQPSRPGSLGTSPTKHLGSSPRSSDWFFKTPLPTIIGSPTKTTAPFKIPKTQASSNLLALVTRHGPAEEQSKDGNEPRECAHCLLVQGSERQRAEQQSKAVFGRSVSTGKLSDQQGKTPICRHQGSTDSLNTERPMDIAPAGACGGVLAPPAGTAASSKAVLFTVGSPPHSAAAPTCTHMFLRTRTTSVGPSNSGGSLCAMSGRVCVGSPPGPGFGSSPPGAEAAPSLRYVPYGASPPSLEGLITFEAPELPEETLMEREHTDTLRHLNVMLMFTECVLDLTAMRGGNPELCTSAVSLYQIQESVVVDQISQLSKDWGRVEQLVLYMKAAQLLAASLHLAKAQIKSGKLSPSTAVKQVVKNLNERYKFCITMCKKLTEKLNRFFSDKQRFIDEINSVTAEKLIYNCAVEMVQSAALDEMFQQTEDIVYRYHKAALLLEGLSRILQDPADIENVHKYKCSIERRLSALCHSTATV
T7 sequence (P53667 whole entry): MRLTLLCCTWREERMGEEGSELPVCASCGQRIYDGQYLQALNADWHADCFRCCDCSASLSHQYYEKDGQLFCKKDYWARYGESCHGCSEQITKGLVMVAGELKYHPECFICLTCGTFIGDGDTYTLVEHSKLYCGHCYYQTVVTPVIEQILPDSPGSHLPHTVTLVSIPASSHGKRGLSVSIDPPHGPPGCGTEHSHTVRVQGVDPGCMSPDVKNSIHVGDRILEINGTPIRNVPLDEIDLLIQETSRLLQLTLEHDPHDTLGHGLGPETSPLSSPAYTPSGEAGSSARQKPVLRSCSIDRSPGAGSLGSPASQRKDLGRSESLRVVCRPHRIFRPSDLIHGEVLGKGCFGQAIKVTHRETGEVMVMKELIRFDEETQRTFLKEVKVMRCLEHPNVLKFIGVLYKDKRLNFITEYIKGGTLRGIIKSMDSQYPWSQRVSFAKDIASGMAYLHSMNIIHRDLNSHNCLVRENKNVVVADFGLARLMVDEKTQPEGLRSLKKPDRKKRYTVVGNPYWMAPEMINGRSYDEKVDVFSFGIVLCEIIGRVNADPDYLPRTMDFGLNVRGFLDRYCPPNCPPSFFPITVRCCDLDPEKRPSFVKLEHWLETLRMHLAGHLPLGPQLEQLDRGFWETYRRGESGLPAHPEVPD
T26 sequence (P52333 813-1124 limits assumed): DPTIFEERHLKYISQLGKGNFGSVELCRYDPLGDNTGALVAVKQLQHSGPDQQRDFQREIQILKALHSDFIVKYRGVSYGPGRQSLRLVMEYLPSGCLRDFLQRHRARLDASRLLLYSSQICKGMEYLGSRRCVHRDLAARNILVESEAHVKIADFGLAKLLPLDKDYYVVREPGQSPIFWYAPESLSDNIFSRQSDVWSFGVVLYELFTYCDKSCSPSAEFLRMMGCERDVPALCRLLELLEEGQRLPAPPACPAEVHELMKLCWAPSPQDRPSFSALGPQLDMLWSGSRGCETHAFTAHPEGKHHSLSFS
T25 sequence (Q9NWZ3 whole entry): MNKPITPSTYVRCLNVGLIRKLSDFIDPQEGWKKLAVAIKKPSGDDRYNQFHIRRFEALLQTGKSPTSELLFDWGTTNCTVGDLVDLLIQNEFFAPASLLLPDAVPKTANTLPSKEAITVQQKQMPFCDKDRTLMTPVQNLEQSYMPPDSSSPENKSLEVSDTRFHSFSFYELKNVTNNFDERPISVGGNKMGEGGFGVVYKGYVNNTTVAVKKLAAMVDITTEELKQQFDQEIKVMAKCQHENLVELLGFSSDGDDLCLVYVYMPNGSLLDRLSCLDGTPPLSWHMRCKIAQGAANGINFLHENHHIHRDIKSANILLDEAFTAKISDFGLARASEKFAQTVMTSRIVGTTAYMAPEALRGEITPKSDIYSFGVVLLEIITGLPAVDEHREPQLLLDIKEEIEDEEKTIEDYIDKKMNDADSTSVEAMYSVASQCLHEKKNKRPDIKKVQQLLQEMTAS
T6 sequence (Q96SB4 whole entry): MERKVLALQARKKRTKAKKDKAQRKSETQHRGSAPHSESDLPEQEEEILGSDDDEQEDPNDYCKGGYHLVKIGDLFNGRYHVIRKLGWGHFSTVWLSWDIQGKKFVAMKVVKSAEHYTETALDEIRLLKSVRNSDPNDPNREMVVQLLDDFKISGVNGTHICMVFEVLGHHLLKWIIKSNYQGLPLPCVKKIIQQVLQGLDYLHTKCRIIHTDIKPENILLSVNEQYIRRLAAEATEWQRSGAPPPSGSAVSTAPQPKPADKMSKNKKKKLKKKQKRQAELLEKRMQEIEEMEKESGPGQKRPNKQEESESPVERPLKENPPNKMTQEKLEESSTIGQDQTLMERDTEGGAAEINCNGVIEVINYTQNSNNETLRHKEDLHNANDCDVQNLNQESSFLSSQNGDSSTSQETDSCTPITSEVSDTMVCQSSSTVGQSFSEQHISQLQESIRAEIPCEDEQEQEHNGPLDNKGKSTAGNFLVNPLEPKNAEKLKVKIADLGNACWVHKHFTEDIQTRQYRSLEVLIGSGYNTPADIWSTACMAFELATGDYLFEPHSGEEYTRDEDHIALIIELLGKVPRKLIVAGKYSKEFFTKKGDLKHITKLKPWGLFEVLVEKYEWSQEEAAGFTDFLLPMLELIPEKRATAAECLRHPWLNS
T5 sequence (O00141 whole entry): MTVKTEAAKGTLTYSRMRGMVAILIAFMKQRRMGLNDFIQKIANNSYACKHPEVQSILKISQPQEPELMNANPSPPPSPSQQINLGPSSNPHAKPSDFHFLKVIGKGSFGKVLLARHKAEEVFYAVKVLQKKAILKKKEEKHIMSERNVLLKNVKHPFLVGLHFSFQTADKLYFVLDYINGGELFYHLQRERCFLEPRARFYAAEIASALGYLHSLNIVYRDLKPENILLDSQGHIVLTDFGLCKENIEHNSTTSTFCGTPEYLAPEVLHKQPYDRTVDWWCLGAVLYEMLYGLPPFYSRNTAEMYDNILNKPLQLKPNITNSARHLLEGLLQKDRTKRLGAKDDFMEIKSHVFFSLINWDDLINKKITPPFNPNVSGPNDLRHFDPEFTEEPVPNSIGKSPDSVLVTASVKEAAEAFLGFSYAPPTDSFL
T9 sequence (P31749 whole entry): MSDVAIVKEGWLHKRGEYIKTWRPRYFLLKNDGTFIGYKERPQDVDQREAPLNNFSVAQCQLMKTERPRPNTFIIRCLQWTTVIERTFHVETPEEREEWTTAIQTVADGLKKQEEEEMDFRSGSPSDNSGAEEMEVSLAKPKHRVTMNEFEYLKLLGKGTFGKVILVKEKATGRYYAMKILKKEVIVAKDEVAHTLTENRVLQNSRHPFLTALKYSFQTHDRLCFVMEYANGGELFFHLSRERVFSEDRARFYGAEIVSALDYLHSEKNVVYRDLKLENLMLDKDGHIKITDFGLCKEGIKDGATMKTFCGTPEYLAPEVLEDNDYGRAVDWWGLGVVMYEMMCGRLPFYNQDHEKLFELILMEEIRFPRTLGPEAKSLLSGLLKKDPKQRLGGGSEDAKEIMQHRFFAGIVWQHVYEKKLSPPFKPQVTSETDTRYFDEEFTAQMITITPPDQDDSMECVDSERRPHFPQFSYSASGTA

For O=C(O)c1ccc(-c2coc3ncc(-c4ccccc4)cc23)cc1Cl [SGC-CAMKK2-1N (UNC-YL-83)], the remaining binding at 1 µM [1] was 61%, the remaining binding at 1 µM [2] was 71% and the remaining binding at 1 µM [3] was 71%. The remaining binding at 1 µM [4] was 76%, the remaining binding at 1 µM [5] was 79% and the remaining binding at 1 µM [6] was 85%. For the same molecule, the remaining binding at 1 µM [7] was 88%, the remaining binding at 1 µM [8] was 94% and the remaining binding at 1 µM [9] was 100%. It also gave a remaining binding at 1 µM [10] of 100% and a remaining binding at 1 µM [11] of 100%.

Cc1cccc(-c2cnc3occ(-c4ccc(C(=O)O)c(C5CCCC5)c4)c3c2)c1 [SGC-CAMKK2-1 (YL-36)] gave a remaining binding at 1 µM [12] of 78%, a remaining binding at 1 µM [13] of 79% and a remaining binding at 1 µM [14] of 83%. The remaining binding at 1 µM [15] was 85%, the remaining binding at 1 µM [16] was 88% and the remaining binding at 1 µM [17] was 93%. The remaining binding at 1 µM [18] was 95%, the remaining binding at 1 µM [19] was 99% and the remaining binding at 1 µM [20] was 100%. For the same molecule, the remaining binding at 1 µM [21] was 100%, the remaining binding at 1 µM [22] was 100% and the remaining binding at 1 µM [23] was 100%. The remaining binding at 1 µM [24] was 100%, the remaining binding at 1 µM [25] was 100% and the remaining binding at 1 µM [26] was 100%. For the same molecule, the remaining binding at 1 µM [27] was 100%, the remaining binding at 1 µM [28] was 100% and the remaining binding at 1 µM [29] was 100%. The remaining binding at 1 µM [30] was 100%, the remaining binding at 1 µM [31] was 100% and the remaining binding at 1 µM [32] was 100%. The remaining binding at 1 µM [33] was 100%.
